This note sets out measurements from PubChem BioAssay (NCI).

Molecules are shown by their SMILES.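 Cells were grown in 96-well plates and exposed to each compound for 48 hours at five concentrations; endpoints were interpolated linearly between bracketing concentrations, or set to the highest concentration if not reached. GI50 is the concentration that inhibits growth by half. Definition used: TGI = concentration required for complete inhibition of growth.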

Test systems include MDA-MB-231 breast; A498 renal; SK-MEL-2 melanoma; HCC-2998 colon; HOP-92 NSCLC; PC-3 prostate; SF-295 CNS; SR leukemia; HOP-62 NSCLC; KM12 colon.
Common to all, as to test: growth of human tumour cells (NCI), 48 h

With `COc1cccc2c1C(=O)c1c(O)c3c(c(O)c1C2=O)C[C@@](O)(C(=O)CO)C[C@@H]3OC1C[C@H](N)[C@H](O)[C@H](C)O1` (stereo partly specified), the GI50 in the test with MDA-MB-231 breast is 0.144 µM; in the test on A498 renal, 0.0482 µM; in the test on SK-MEL-2 melanoma it was 0.141 µM; in the test with HCC-2998 colon, 0.0678 µM; in the test with HOP-92 NSCLC it was 0.0236 µM; with PC-3 prostate, 0.112 µM. For the same compound, the GI50 in the test on SF-295 CNS was 0.0371 µM; in the test with SR leukemia, 0.00558 µM; in the test on HOP-62 NSCLC it was 0.033 µM; in the test with KM12 colon it was 0.135 µM. For the same compound, the TGI was 5.41 µM in the test on MDA-MB-231 breast; 0.146 µM with A498 renal; 5.47 µM with SK-MEL-2 melanoma; 0.34 µM with HCC-2998 colon; 0.233 µM in the test on HOP-92 NSCLC; 1.22 µM with PC-3 prostate. In addition, the TGI turned out to be 0.372 µM in the test on SF-295 CNS, 0.826 µM in the test with SR leukemia, 0.323 µM in the test with HOP-62 NSCLC and 6.27 µM in the test on KM12 colon.
Consider `COc1cc(/C=C2\CN(C)C/C(=C\c3cc(CN4CCCCC4)c(O)c(OC)c3)C2=O)cc(CN2CCCCC2)c1O`, for which the GI50 with MDA-MB-231 breast is 3.18 µM; in the test with A498 renal, 10.1 µM; in the test with SK-MEL-2 melanoma it was 3.53 µM; in the test with HCC-2998 colon it was 2.61 µM; in the test on HOP-92 NSCLC, 2.55 µM; in the test on PC-3 prostate, 4.36 µM. Also, the GI50 in the test on SF-295 CNS was 4.52 µM; in the test with SR leukemia it was 3.15 µM; with HOP-62 NSCLC, 4.28 µM; in the test on KM12 colon, 2.17 µM. Besides, the TGI in the test with MDA-MB-231 breast is 11.6 µM; in the test on A498 renal, 22.7 µM; in the test on SK-MEL-2 melanoma it was 13.2 µM; in the test with HCC-2998 colon, 12 µM; in the test on HOP-92 NSCLC it was 9.21 µM; in the test with PC-3 prostate it was 26.2 µM. In addition, the TGI in the test with SF-295 CNS came to 17.1 µM; with SR leukemia, 9.37 µM; with HOP-62 NSCLC it was 18.4 µM; with KM12 colon it was 4.97 µM.
On to `O=C(N/N=C/c1ccc([N+](=O)[O-])cc1)c1ccc2nc(-c3ccc(Cl)cc3)[nH]c2c1`, for which the GI50 is 3.75 µM in the test with MDA-MB-231 breast; 2.39 µM in the test with A498 renal; 5.1 µM in the test with SK-MEL-2 melanoma; 1.48 µM in the test with HCC-2998 colon; 0.985 µM in the test with HOP-92 NSCLC; 0.42 µM in the test with PC-3 prostate. Further, the GI50 was 3.4 µM with SF-295 CNS, 0.566 µM with SR leukemia, 6.42 µM in the test with HOP-62 NSCLC and 3.43 µM in the test on KM12 colon. In addition, the TGI was determined as 13.9 µM with MDA-MB-231 breast; 7.75 µM with A498 renal; 21.9 µM in the test on SK-MEL-2 melanoma; 4.81 µM in the test on HCC-2998 colon; 7.52 µM in the test on HOP-92 NSCLC; 15.3 µM in the test on PC-3 prostate. The TGI in the test with SF-295 CNS was determined as 13.1 µM; in the test with SR leukemia, 4.87 µM; in the test on HOP-62 NSCLC, 30.8 µM; in the test with KM12 colon it was 13 µM.
Regarding `O=c1cc(-c2ccccc2)[nH]n1-c1nc2ccccc2[nH]1`, the GI50 in the test on MDA-MB-231 breast is 6.92 µM; with A498 renal, 3.72 µM; in the test on SK-MEL-2 melanoma, 9.32 µM; in the test on HCC-2998 colon, 23.1 µM; with HOP-92 NSCLC it was 4.25 µM; with PC-3 prostate it was 4.22 µM. The GI50 in the test with SF-295 CNS was 2.92 µM; in the test with SR leukemia it was 5.86 µM; in the test with HOP-62 NSCLC it was 4.96 µM; with KM12 colon it was 5.28 µM. In addition, the TGI was 93.6 µM in the test on MDA-MB-231 breast; 22.9 µM in the test with A498 renal; 66.8 µM with SK-MEL-2 melanoma; more than 100 µM in the test on HCC-2998 colon; 47.7 µM in the test with HOP-92 NSCLC; 44.5 µM in the test on PC-3 prostate. In addition, the TGI in the test on SF-295 CNS, in the test on SR leukemia, in the test with HOP-62 NSCLC and in the test on KM12 colon was more than 100 µM throughout.
Consider `N#CC1=C(N)NC(=O)NC12Nc1ccccc1S2` (stereo unspecified), for which the GI50 in the test with MDA-MB-231 breast was 10.4 µM; in the test on A498 renal, 16.5 µM; in the test on SK-MEL-2 melanoma, more than 44.4 µM; with HCC-2998 colon, 35.5 µM; in the test with HOP-92 NSCLC, 91.3 µM; in the test with PC-3 prostate, 28 µM. Besides, the GI50 in the test on SF-295 CNS was 26.4 µM; with SR leukemia, 10.4 µM; in the test with HOP-62 NSCLC, 23.1 µM; in the test with KM12 colon it was 26.5 µM. Besides, the TGI is 31.2 µM in the test on MDA-MB-231 breast; 36.8 µM in the test with A498 renal; more than 64.2 µM with SK-MEL-2 melanoma; more than 100 µM in the test with HCC-2998 colon; more than 100 µM with HOP-92 NSCLC; more than 57.9 µM in the test with PC-3 prostate. Further, the TGI with SF-295 CNS was more than 65.7 µM; in the test on SR leukemia, more than 100 µM; in the test with HOP-62 NSCLC it was 56.7 µM; with KM12 colon, more than 68.4 µM.
`COC(=O)C1(F)C(=O)NC(=O)NC1O` (stereo unspecified): the TGI with MDA-MB-231 breast, in the test with A498 renal, with SK-MEL-2 melanoma, in the test with HCC-2998 colon, with HOP-92 NSCLC and in the test with PC-3 prostate was more than 100 µM throughout. The TGI in the test with SF-295 CNS, in the test with SR leukemia, with HOP-62 NSCLC and in the test with KM12 colon was more than 100 µM each time.
On to `COc1ccc(C(=O)c2cc3c(OC)c(OC)c(OC)cc3[nH]2)cc1`, for which the GI50 is 4.96 µM with MDA-MB-231 breast; 6.45 µM in the test on A498 renal; 3.8 µM in the test on HCC-2998 colon; 9.24 µM in the test on HOP-92 NSCLC; more than 100 µM in the test on PC-3 prostate; 6.72 µM in the test with SF-295 CNS. Also, the GI50 with SR leukemia was 0.295 µM; with HOP-62 NSCLC, 19.6 µM; in the test on KM12 colon it was 2.36 µM. The TGI in the test on MDA-MB-231 breast is more than 100 µM; in the test with A498 renal, 47.7 µM; with HCC-2998 colon it was more than 100 µM; in the test with HOP-92 NSCLC, more than 100 µM; in the test on PC-3 prostate, more than 100 µM; in the test on SF-295 CNS, more than 100 µM. The TGI in the test on SR leukemia is 2.57 µM; in the test with HOP-62 NSCLC, 80.9 µM; in the test on KM12 colon, more than 100 µM.
Take `O=C(N/N=C/c1ccccc1O)C(=O)Nc1ccc(F)cc1`: the GI50 in the test with MDA-MB-231 breast was 3.23 µM; with A498 renal it was 83.4 µM; in the test on SK-MEL-2 melanoma it was 22.9 µM; with HCC-2998 colon, 4.61 µM; in the test on PC-3 prostate it was 4.21 µM; with SF-295 CNS, 1.81 µM. Besides, the GI50 is 2.52 µM in the test on SR leukemia, 10.7 µM in the test with HOP-62 NSCLC and 6.97 µM with KM12 colon. Also, the TGI with MDA-MB-231 breast is more than 100 µM; in the test on A498 renal, more than 100 µM; with SK-MEL-2 melanoma it was more than 100 µM; in the test on HCC-2998 colon, more than 100 µM; in the test on PC-3 prostate, more than 100 µM; in the test on SF-295 CNS it was 15.5 µM. In addition, the TGI with SR leukemia, with HOP-62 NSCLC and in the test with KM12 colon was more than 100 µM throughout.
